Measured values: patent publication US20130237485A1, “Methods and Agents for Enhancing Wound Healing” (UNIVERSITY OF SOUTHERN CALIFORNIA, priority 2010, published 2013)

Columns and labels:
RDEB keratinocytes = test: Immunoblot (anti-NC1 antibody) for full-length C7 in RDEB keratinocytes treated with aminoglycosides; format: cell-based, human; conditions: for read-through / full-length C7 production: 48 h, G418 8 μg/mL, gentamicin 200 μg/mL, paromomycin 200 μg/mL, amikacin 1 mg/mL, PTC 124 20 μg/mL, EB5K and DG16 keratinocytes, FIG. 1; for sustained C7 production: G418 8 μg/mL or gentamicin 200 μg/mL, lysed at 3, 5, or 8 days following treatment, FIG. 3; for dose dependence of full-length C7 production: varying concentrations, EB5K and DG16 lines, FIG. 2
Procedure: RDEB keratinocytes were treated for 48 h with either G418 (8 μg/mL), gentamicin (200 μg/mL), paromomcyin (200 μg/mL), amikacin (1 mg/mL), or PTC 124 (20 μg/mL). Cells were subsequently lysed and subjected to immunoblot analysis with anti-NC1 antibody or anti-β-tubulin antibody (loading control).
RDEB keratinocytes were treated with varying concentrations of G418 and Gentamicin. Cells were lysed and subjected to immunoblot analysis with an anti-NC1 or anti-β-tubulin antibody (loading control).
EB5K and D016 keratinocytes were treated with G418 (8 μg/mL) or gentamicin (200 μg/mL). Cells were lysed at 3, 5, or 8 days following treatment and subjected to immunoblot analysis with an anti-NC1 or anti-β-tubulin antibody.

[1] = tested on: Human epithelial (293 cells) transfected with nonsense mutation constructs; test: Immunoblot (anti-NC1 antibody) of 293 cells transfected with COL7A1 nonsense mutation constructs; format: cell-based; conditions: 293 cells with mutant constructs; for PTC read-through and full-length C7 production: G418 8 μg/mL or gentamicin 200 μg/mL for 48 h, FIG. 7
Procedure: For experimentation with cells containing different nonsense mutation in the COL7A1 gene, we used a C7 expression vector to introduce 30 nonsense mutations associated with RDEB via site-directed mutagenesis.
Human epithelial (293 cells) transfected with nonsense mutation constructs were treated with (FIG. 7A) G418 (8 μg/mL) and (FIG. 7B) gentamicin (200 μg/mL) for 48 h, lysed, and subjected to immunoblot analysis with an anti-NC1 antibody or anti-β-tubulin antibody (loading control).
In FIG. 8B, 293 cells transfected with the indicated mutant constructs were either untreated or treated with G418 (8 μg/mL) for 48 h, lysed and subjected to immunoblot analysis using an anti-NC1 antibody or anti-β-tubulin antibody (loading control).

[2] = tested on: DG16 and EB5K keratinocytes; test: Immunofluorescence staining for C7 with polyclonal anti-NC1 antibody; format: cell-based, human; conditions: G418 8 μg/mL or gentamicin 200 μg/mL, FIG. 4
Text: Normal human keratinocytes (IKC) were stained in parallel. […] In contrast, untreated parent keratinocytes entirely lacked C7expression.

[3] = tested on: EB5K and DG16 keratinocytes; test: Colloidal gold salt migration assay using collagen I as a matrix; format: cell-based; conditions: G418 8 μg/mL or gentamicin 200 μg/mL for 48 h; compared with normal human keratinocytes (IKC); FIG. 5
Procedure: In FIG. 5A, keratinocytes were either untreated or treated with G418 (8 μg/mL) or gentamicin (200 μg/mL) for 48 h and then subjected to colloidal gold salt migration assay using collagen I as a matrix. Representative fields were photographed at 40× under dark field optics. In FIG. 5B, migration index expresses the percentage of the total field area consumed by the migration tracks. Error bars, SD of three different experiments.

| Molecule | read-through / full-length C7 production (RDEB keratinocytes) | levels of truncated and full-length C7 production compared to untreated cells ([1]; G418 8 μg/mL for 48 h, FIG. 8B) | PTC read-through and full-length C7 production [1] | sustained C7 production (RDEB keratinocytes) | dose dependence of full-length C7 production (RDEB keratinocytes) | C7 staining (immunofluorescence) [2] | keratinocyte hypermotility (migration index) [3] |
| --- | --- | --- | --- | --- | --- | --- | --- |
| NCC[C@H](O)C(=O)N[C@@H]1C[C@H](N)[C@@H](O[C@H]2O[C@H](CN)[C@@H](O)[C@H](O)[C@H]2O)[C@H](O)[C@H]1O[C@H]1O[C@H](CO)[C@@H](O)[C@H](N)[C@H]1O [Amikacin, amikacin] | did not cause read-through in either keratinocyte line | – | – | – | – | – | – |
| CN[C@@H]1[C@@H](O)[C@@H](O[C@@H]2[C@@H](O)[C@H](O[C@H]3O[C@H]([C@@H](C)O)[C@@H](O)[C@H](O)[C@H]3N)[C@@H](N)C[C@H]2N)OC[C@]1(C)O [G418] | induced full-length C7 production in both EB5K and DG16 keratinocytes | significantly higher levels of truncated and full-length C7 production | induced PTC read-through and full-length C7 production | induced sustained C7 production | induced full-length C7 production in a dose-dependent manner in both EB5K and DG16 lines | demonstrated C7 staining | reversed their hypermotility phenotype to normal |
| O=C(O)c1cccc(-c2noc(-c3ccccc3F)n2)c1 [PTC124, PTC 124] | did not cause read-through in either keratinocyte line | – | – | – | – | – | – |
| NC[C@@H]1O[C@H](O[C@H]2[C@@H](O)[C@H](O[C@@H]3[C@@H](O)[C@H](N)C[C@H](N)[C@H]3O[C@H]3O[C@H](CO)[C@@H](O)[C@H](O)[C@H]3N)O[C@@H]2CO)[C@H](N)[C@@H](O)[C@@H]1O [Paromomycin, paromomycin] | induced read-through in DG16 cells only | – | – | – | – | – | – |
| gentamicin | induced full-length C7 production in both EB5K and DG16 keratinocytes | – | induced PTC read-through and full-length C7 production | induced sustained C7 production | induced full-length C7 production in a dose-dependent manner in both EB5K and DG16 lines | demonstrated C7 staining | reversed their hypermotility phenotype to normal |
